# Reference: ChEMBL document CHEMBL3763030, “Structure-Activity Relationship of Azaindole-Based Glucokinase Activators” (J Med Chem, 2016)
# Test: Stability in C57BL/6J mouse microsomes
# Format: ADME, Microsome
row,SMILES,Stability [%]
1,C[S+]([O-])c1ccc(C(CC2CCCC2)c2cc3cccnc3[nH]2)cc1Cl (stereo in doubt; 16a),50
2,C[S+]([O-])c1ccc(C(CC2CCCC2)c2cc3cccnc3[nH]2)cc1Cl (stereo in doubt; 16c),40
3,CS(=O)(=O)c1ccc([C@@H](C[C@H]2CCC(=O)C2)C(=O)Nc2cnccn2)cc1Cl [PIRAGLIATIN],85
